From patent US20030118577A1, “Use of analogues of superoxide dismutase for treating hepatocellular insufficiencies” (priority 2000, published 2003)

Tested on: acute hepatic insufficiency induced by acetaminophen
Assay: Survival of mice after intraperitoneal acetaminophen (acute hepatic insufficiency)

SMILES: CC(=O)N[C@@H](CS)C(=O)O [NAC, N-acetyl-L-cysteine]
- activity on survival, curative versus preventive administration (APAP 1000 mg/kg, 6 hours after (C) or 2 hours before (P)): only active preventively
- percentage of surviving animals (Group X: APAP 1000 mg/kg, NAC 100 mg/kg (P), time 0 h): 100%
- percentage of surviving animals (Group X: APAP 1000 mg/kg, NAC 100 mg/kg (P), time 6 h): 100%
- percentage of surviving animals (Group X: APAP 1000 mg/kg, NAC 100 mg/kg (P), time 8 h): 100%
- percentage of surviving animals (Group X: APAP 1000 mg/kg, NAC 100 mg/kg (P), time 9 h): 100%
- percentage of surviving animals (Group X: APAP 1000 mg/kg, NAC 100 mg/kg (P), time 10 h): 100%
- percentage of surviving animals (Group X: APAP 1000 mg/kg, NAC 100 mg/kg (P), time 11 h): 100%
- percentage of surviving animals (Group X: APAP 1000 mg/kg, NAC 100 mg/kg (P), time 12 h): 100%
- percentage of surviving animals (Group X: APAP 1000 mg/kg, NAC 100 mg/kg (P), time 13 h): 100%
- percentage of surviving animals (Group X: APAP 1000 mg/kg, NAC 100 mg/kg (P), time 14 h): 90%
- percentage of surviving animals (Group X: APAP 1000 mg/kg, NAC 100 mg/kg (P), time 15 h): 80%
- percentage of surviving animals (Group X: APAP 1000 mg/kg, NAC 100 mg/kg (P), time 16 h): 60%
- percentage of surviving animals (Group X: APAP 1000 mg/kg, NAC 100 mg/kg (P), time 17 h): 60%
- percentage of surviving animals (Group X: APAP 1000 mg/kg, NAC 100 mg/kg (P), time 18 h): 50%
- percentage of surviving animals (Group X: APAP 1000 mg/kg, NAC 100 mg/kg (P), time 20 h): 40%
- percentage of surviving animals (Group X: APAP 1000 mg/kg, NAC 100 mg/kg (P), time 22 h): 40%
- percentage of surviving animals (Group X: APAP 1000 mg/kg, NAC 100 mg/kg (P), time 24 h): 40%
- percentage of surviving animals (Group XI: APAP 1000 mg/kg, NAC 200 mg/kg (P), time 0 h): 100%
- percentage of surviving animals (Group XI: APAP 1000 mg/kg, NAC 200 mg/kg (P), time 6 h): 100%
- percentage of surviving animals (Group XI: APAP 1000 mg/kg, NAC 200 mg/kg (P), time 8 h): 100%
- percentage of surviving animals (Group XI: APAP 1000 mg/kg, NAC 200 mg/kg (P), time 9 h): 100%
- percentage of surviving animals (Group XI: APAP 1000 mg/kg, NAC 200 mg/kg (P), time 10 h): 100%
- percentage of surviving animals (Group XI: APAP 1000 mg/kg, NAC 200 mg/kg (P), time 11 h): 90%
- percentage of surviving animals (Group XI: APAP 1000 mg/kg, NAC 200 mg/kg (P), time 12 h): 90%
- percentage of surviving animals (Group XI: APAP 1000 mg/kg, NAC 200 mg/kg (P), time 13 h): 90%
- percentage of surviving animals (Group XI: APAP 1000 mg/kg, NAC 200 mg/kg (P), time 14 h): 90%
- percentage of surviving animals (Group XI: APAP 1000 mg/kg, NAC 200 mg/kg (P), time 15 h): 90%
- percentage of surviving animals (Group XI: APAP 1000 mg/kg, NAC 200 mg/kg (P), time 16 h): 80%
- percentage of surviving animals (Group XI: APAP 1000 mg/kg, NAC 200 mg/kg (P), time 17 h): 80%
- percentage of surviving animals (Group XI: APAP 1000 mg/kg, NAC 200 mg/kg (P), time 18 h): 60%
- percentage of surviving animals (Group XI: APAP 1000 mg/kg, NAC 200 mg/kg (P), time 20 h): 60%
- percentage of surviving animals (Group XI: APAP 1000 mg/kg, NAC 200 mg/kg (P), time 22 h): 60%
- percentage of surviving animals (Group XI: APAP 1000 mg/kg, NAC 200 mg/kg (P), time 24 h): 60%
- percentage of surviving animals (Group XII: APAP 1000 mg/kg, NAC 300 mg/kg (P), time 0 h): 100%
- percentage of surviving animals (Group XII: APAP 1000 mg/kg, NAC 300 mg/kg (P), time 6 h): 100%
- percentage of surviving animals (Group XII: APAP 1000 mg/kg, NAC 300 mg/kg (P), time 8 h): 100%
- percentage of surviving animals (Group XII: APAP 1000 mg/kg, NAC 300 mg/kg (P), time 9 h): 90%
- percentage of surviving animals (Group XII: APAP 1000 mg/kg, NAC 300 mg/kg (P), time 10 h): 90%
- percentage of surviving animals (Group XII: APAP 1000 mg/kg, NAC 300 mg/kg (P), time 11 h): 90%
- percentage of surviving animals (Group XII: APAP 1000 mg/kg, NAC 300 mg/kg (P), time 12 h): 90%
- percentage of surviving animals (Group XII: APAP 1000 mg/kg, NAC 300 mg/kg (P), time 13 h): 90%
- percentage of surviving animals (Group XII: APAP 1000 mg/kg, NAC 300 mg/kg (P), time 14 h): 90%
- percentage of surviving animals (Group XII: APAP 1000 mg/kg, NAC 300 mg/kg (P), time 15 h): 90%
- percentage of surviving animals (Group XII: APAP 1000 mg/kg, NAC 300 mg/kg (P), time 16 h): 90%
- percentage of surviving animals (Group XII: APAP 1000 mg/kg, NAC 300 mg/kg (P), time 17 h): 90%
- percentage of surviving animals (Group XII: APAP 1000 mg/kg, NAC 300 mg/kg (P), time 18 h): 80%
- percentage of surviving animals (Group XII: APAP 1000 mg/kg, NAC 300 mg/kg (P), time 20 h): 80%
- percentage of surviving animals (Group XII: APAP 1000 mg/kg, NAC 300 mg/kg (P), time 22 h): 80%
- percentage of surviving animals (Group XII: APAP 1000 mg/kg, NAC 300 mg/kg (P), time 24 h): 80%
- percentage of surviving animals (Group XIII: APAP 1000 mg/kg, NAC 100 mg/kg (C), time 0 h): 100%
- percentage of surviving animals (Group XIII: APAP 1000 mg/kg, NAC 100 mg/kg (C), time 6 h): 100%
- percentage of surviving animals (Group XIII: APAP 1000 mg/kg, NAC 100 mg/kg (C), time 8 h): 90%
- percentage of surviving animals (Group XIII: APAP 1000 mg/kg, NAC 100 mg/kg (C), time 9 h): 80%
- percentage of surviving animals (Group XIII: APAP 1000 mg/kg, NAC 100 mg/kg (C), time 10 h): 60%
- percentage of surviving animals (Group XIII: APAP 1000 mg/kg, NAC 100 mg/kg (C), time 11 h): 50%
- percentage of surviving animals (Group XIII: APAP 1000 mg/kg, NAC 100 mg/kg (C), time 12 h): 50%
- percentage of surviving animals (Group XIII: APAP 1000 mg/kg, NAC 100 mg/kg (C), time 13 h): 40%
- percentage of surviving animals (Group XIII: APAP 1000 mg/kg, NAC 100 mg/kg (C), time 14 h): 30%
- percentage of surviving animals (Group XIII: APAP 1000 mg/kg, NAC 100 mg/kg (C), time 15 h): 20%
- percentage of surviving animals (Group XIII: APAP 1000 mg/kg, NAC 100 mg/kg (C), time 16 h): 20%
- percentage of surviving animals (Group XIII: APAP 1000 mg/kg, NAC 100 mg/kg (C), time 17 h): 20%
- percentage of surviving animals (Group XIII: APAP 1000 mg/kg, NAC 100 mg/kg (C), time 18 h): 10%
- percentage of surviving animals (Group XIII: APAP 1000 mg/kg, NAC 100 mg/kg (C), time 20 h): 10%
- percentage of surviving animals (Group XIII: APAP 1000 mg/kg, NAC 100 mg/kg (C), time 22 h): 10%
- percentage of surviving animals (Group XIII: APAP 1000 mg/kg, NAC 100 mg/kg (C), time 24 h): 10%
- percentage of surviving animals (Group XIV: APAP 1000 mg/kg, NAC 300 mg/kg (C), time 0 h): 100%
- percentage of surviving animals (Group XIV: APAP 1000 mg/kg, NAC 300 mg/kg (C), time 6 h): 100%
- percentage of surviving animals (Group XIV: APAP 1000 mg/kg, NAC 300 mg/kg (C), time 8 h): 100%
- percentage of surviving animals (Group XIV: APAP 1000 mg/kg, NAC 300 mg/kg (C), time 9 h): 90%
- percentage of surviving animals (Group XIV: APAP 1000 mg/kg, NAC 300 mg/kg (C), time 10 h): 80%
- percentage of surviving animals (Group XIV: APAP 1000 mg/kg, NAC 300 mg/kg (C), time 11 h): 80%
- percentage of surviving animals (Group XIV: APAP 1000 mg/kg, NAC 300 mg/kg (C), time 12 h): 60%
- percentage of surviving animals (Group XIV: APAP 1000 mg/kg, NAC 300 mg/kg (C), time 13 h): 40%
- percentage of surviving animals (Group XIV: APAP 1000 mg/kg, NAC 300 mg/kg (C), time 14 h): 40%
- percentage of surviving animals (Group XIV: APAP 1000 mg/kg, NAC 300 mg/kg (C), time 15 h): 40%
- percentage of surviving animals (Group XIV: APAP 1000 mg/kg, NAC 300 mg/kg (C), time 16 h): 30%
- percentage of surviving animals (Group XIV: APAP 1000 mg/kg, NAC 300 mg/kg (C), time 17 h): 30%
- percentage of surviving animals (Group XIV: APAP 1000 mg/kg, NAC 300 mg/kg (C), time 18 h): 30%
- percentage of surviving animals (Group XIV: APAP 1000 mg/kg, NAC 300 mg/kg (C), time 20 h): 20%
- percentage of surviving animals (Group XIV: APAP 1000 mg/kg, NAC 300 mg/kg (C), time 22 h): 20%
- percentage of surviving animals (Group XIV: APAP 1000 mg/kg, NAC 300 mg/kg (C), time 24 h): 20%
